{"source": "patent US8822468B2", "about": "(Novartis AG, priority 2008, dated 2014)"}
{"target": "T1, cMET receptor tyrosine kinase (GST-cMET (969-1390)) (Homo sapiens, UniProt P08581)", "T1 construct": "made in house", "T1 sequence (P08581 969-1390)": "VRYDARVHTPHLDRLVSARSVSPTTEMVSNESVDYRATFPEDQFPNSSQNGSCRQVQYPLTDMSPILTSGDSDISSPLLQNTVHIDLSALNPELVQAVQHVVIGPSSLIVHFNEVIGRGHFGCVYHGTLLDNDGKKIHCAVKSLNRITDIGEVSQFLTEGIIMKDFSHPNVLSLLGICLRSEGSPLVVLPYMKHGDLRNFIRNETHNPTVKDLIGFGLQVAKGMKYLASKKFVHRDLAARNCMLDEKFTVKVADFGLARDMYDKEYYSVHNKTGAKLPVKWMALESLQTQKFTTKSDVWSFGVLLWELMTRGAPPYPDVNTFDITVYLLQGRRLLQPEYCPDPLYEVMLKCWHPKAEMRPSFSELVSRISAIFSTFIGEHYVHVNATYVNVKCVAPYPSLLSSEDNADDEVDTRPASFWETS", "assay": "EPK cMET profiling assay (LanthaScreen TR-FRET antibody based kinase phosphorylation assay)", "assay_type": "biochemical", "conditions": "purified recombinant GST-cMET (969-1390), 2 μM ATP, 50 nM Fluorescein-PolyEAY, 60 minutes at room temperature; read-out: c-Met IC50", "method": "A number of compounds of the present invention were assayed in an antibody based kinase phosphorylation assay as follows.\nEPK cMET Profiling Assay:\nThe EPK kinase assay for cMET receptor tyrosine kinase was developed, using the purified recombinant GST-fusion protein, containing the cytoplasmic domain of the enzyme. GST-cMET (969-1390) was purified by affinity chromatography.\nThe kinase assay is based on the LanthaScreen™ technology. LanthaScreen™ is the detection of Time-Resolved Fluorescence Resonance Energy Transfer (TR-FRET) using lanthanide chelates to measure interactions between various binding partners. In a TR-FRET kinase assay, a long-lifetime lanthanide donor species is conjugated to an antibody that specifically binds to a phosphorylated product of a kinase reaction that is labeled with a suitable acceptor fluorophore. This antibody-mediated interaction brings the lanthanide donor and the acceptor into proximity such that resonance energy transfer can take place, resulting in a detectible increase in the FRET signal.\nThe kinase reactions were performed in 384 well microtiter plates in a total reaction volume of 9.05 μL. The assay plates were prepared with 0.05 μL per well of test compound in the appropriate test concentration, as described under “preparation of compound dilutions”. The reactions were started by combining 4.5 μL of ATP solution with 4.5 μL of enzyme-substrate mix (consisting of kinase and substrate). The final concentrations in the kinase reactions were 35 mM Tris/HCl, 1 mM DTT, 0.025% Tween20, 10 μM sodium orthovanadate, 0.25% BSA, 0.6% DMSO, 10 mM MgCl2, 3 mM MnCl2, 2 μM ATP, 50 nM Fluorescein-PolyEAY, and 0.3 nM enzyme.\nThe reactions were incubated for 60 minutes at room temperature and stopped by adding 4.5 μL of stop buffer (50 mM EDTA, 0.04% NP40, 20 mM Tris/HCl).\nSubsequently 4.5 μL of detection mix (50 mM Tris/HCl, 2 mM DTT, 0.05% Tween20, 20 μM sodium orthovanadate, 1% BSA, 1.72 μg/ml Tb-PY20 antibody) were added to the stopped reactions. After 30 minutes incubation at room temperature, the plates were measured in a BMG Pherastar fluorescence reader. The effect of compound on the enzymatic activity was in all assays obtained from the linear progress curves and determined from one reading (end point measurement).\nTest compounds were dissolved in DMSO (10 mM) and transferred into 1.4 mL flat bottom or V-shaped Matrix tubes carrying a unique 2D matrix. The stock solutions were stored at −20° C. if not used immediately. For the test procedure the vials were defrosted and identified by a scanner whereby a working sheet was generated that guided the subsequent working steps.\nCompound dilutions were made in 96 well plates. This format enabled the assay of maximally 40 individual test compounds at 8 concentrations (single points) including 4 reference compounds. The dilution protocol included the production of “pre-dilution plates”, “master plates” and “assay plates”.\nPre-dilution plates: 96 polypropylene well plates were used as pre-dilution plates. A total of 4 pre-dilution plates were prepared including 10 test compounds each on the plate positions A1-A10, one standard compound at A11 and one DMSO control at A12. All dilution steps were done on a HamiltonSTAR robot.\nMaster plates: 100 μL of individual compound dilutions including standard compound and controls of the 4 “pre-dilution plates” were transferred into a 384 “master plate” including the following concentrations 1,820, […], 182, 54.6, 18.2, 5.46, 1.82 and 0.546 μM, respectively in 90% of DMSO.\nAssay plates: Identical “assay plates” were then prepared by pipetting 50 nL each of compound dilutions of the “master plates” into 384-well “assay plates” by means of a HummingBird 384-channel dispenser. These plates were used directly for the assay which was performed in a total volume of 9.05 μL. This led to a final compound concentration of 10, 3.0, 1.0, 0.3, 0.1, 0.03, 0.01 and 0.003 μM and a final DMSO concentration of 0.5% in the assay.", "units": {"IC50": "nM"}}
{"molecule": "Clc1cccc(-c2ccc3ncc(Cc4ccc5ncccc5c4)n3n2)c1", "note": "[Example 53, 6-[6-(3-Chloro-phenyl)-imidazo[1,2-b]pyridazin-3-ylmethyl]-quinoline]", "IC50": 110}
{"molecule": "O=Cc1cccc(-c2ccc3ncc(Cc4ccc5ncccc5c4)n3n2)c1", "note": "[Example 24, 3-(3-Quinolin-6-ylmethyl-imidazo[1,2-b]pyridazin-6-yl)-benzaldehyde]", "IC50": 23.5}
{"molecule": "Fc1cc2ncccc2cc1Cc1cnc2ccc(-c3cnn(CCN4CCOCC4)c3)nn12", "note": "[Example 232, 7-Fluoro-6-{6-[1-(2-morpholin-4-yl-ethyl)-1H-pyrazol-4-yl]-imidazo[1,2-b]pyridazin-3-ylmethyl}-quinoline]", "IC50": 66}
{"molecule": "Clc1cc(-c2ccc3ncc(Cc4ccc5ncccc5c4)n3n2)ccn1", "note": "[Example 49, 6-[6-(2-Chloro-pyridin-4-yl)-imidazo[1,2-b]pyridazin-3-ylmethyl]-quinoline]", "IC50": 23}
{"molecule": "CCN1CCC(n2cc(-c3ccc4ncc(Cc5cc6cccnc6cc5F)n4n3)cn2)CC1", "note": "[Example 148, 6-{6-[1-(1-Ethyl-piperidin-4-yl)-1H-pyrazol-4-yl]-imidazo[1,2-b]pyridazin-3-ylmethyl}-7-fluoro-quinoline]", "IC50": 16}
{"molecule": "CSc1ccc(-c2ccc3ncc(Cc4ccc5ncccc5c4)n3n2)cc1", "note": "[Example 23, 6-[6-(4-Methylsulfanyl-phenyl)-imidazo[1,2-b]pyridazin-3-ylmethyl]-quinoline]", "IC50": 125}
{"molecule": "OCCn1cc(-c2ccc3ncc(Cc4ccc5ncccc5c4)n3n2)cn1", "note": "[Example 210, 2-[4-(3-Quinolin-6-ylmethyl-imidazo[1,2-b]pyridazin-6-yl)-pyrazol-1-yl]-ethanol]", "IC50": 52}
{"molecule": "CC(c1ccc2ncc(Br)n2c1)c1cnc2ccc(-c3cnn(CCO)c3)nn12", "note": "(racemic) [Example 310, (rac)-2-(4-{3-[1-(3-Bromo-imidazo[1,2-a]pyridin-6-yl)-ethyl]-imidazo[1,2-b]pyridazin-6-yl}-pyrazol-1-yl)-ethanol]", "IC50": 10}
{"molecule": "NC(=O)c1ccc(-c2ccc3ncc(Cc4ccc5ncccc5c4)n3n2)cc1Cl", "note": "[Example 15, 2-Chloro-4-(3-quinolin-6-ylmethyl-imidazo[1,2-b]pyridazin-6-yl)-benzamide]", "IC50": 9.5}
{"molecule": "CC(c1cc2cn[nH]c2cc1F)c1cnc2ccc(-c3cnn(C)c3)nn12", "note": "(racemic) [Example 164, (rac)-3-[1-(6-Fluoro-1H-indazol-5-yl)-ethyl]-6-(1-methyl-1H-pyrazol-4-yl)-imidazo[1,2-b]pyridazine]", "IC50": 54}
{"molecule": "Cn1cc(-c2ccc3ncc(Cc4ccc5ncc(Br)n5c4)n3n2)cn1", "note": "[Example 296, 3-(3-Bromo-imidazo[1,2-a]pyridin-6-ylmethyl)-6-(1-methyl-1H-pyrazol-4-yl)-imidazo[1,2-b]pyridazine]", "IC50": 57}
{"molecule": "OCCNc1ccc2ncc(Cc3ccc4nccn4c3)n2n1", "note": "[Example 75, 2-(3-Imidazo[1,2-a]pyridin-6-ylmethyl-imidazo[1,2-b]pyridazin-6-ylamino)-ethanol]", "IC50": 300}
{"molecule": "CC(=O)c1ccc(-c2ccc3ncc(Cc4ccc5ncccc5c4)n3n2)cc1", "note": "[Example 21, 1-[4-(3-Quinolin-6-ylmethyl-imidazo[1,2-b]pyridazin-6-yl)-phenyl]-ethanone]", "IC50": 27.5}
{"molecule": "CN(C)CCNC(=O)c1cccc(-c2ccc3ncc(Cc4ccc5ncccc5c4)n3n2)c1", "note": "[Example 66, N-(2-Dimethylamino-ethyl)-3-(3-quinolin-6-ylmethyl-imidazo[1,2-b]pyridazin-6-yl)-benzamide]", "IC50": 60}
{"molecule": "Fc1cc2ncccc2cc1Cc1cnc2ccc(-c3cnn(CCN4CCCC4)c3)nn12", "note": "[Example 231, 7-Fluoro-6-{6-[1-(2-pyrrolidin-1-yl-ethyl)-1H-pyrazol-4-yl]-imidazo[1,2-b]pyridazin-3-ylmethyl}-quinoline]", "IC50": 26}
{"molecule": "CN(C)c1cccc(-c2ccc3ncc(Cc4ccc5ncccc5c4)n3n2)c1", "note": "[Example 36, Dimethyl-[3-(3-quinolin-6-ylmethyl-imidazo[1,2-b]pyridazin-6-yl)-phenyl]-amine]", "IC50": 65}
{"molecule": "CC(C)CNc1ccc2ncc(C(O)c3ccc4ncccc4c3)n2n1", "note": "(racemic) [Example 77, (rac)-(6-Isobutylamino-imidazo[1,2-b]pyridazin-3-yl)-quinolin-6-yl-methanol]", "IC50": 225}
{"molecule": "C[C@@H](c1c(F)cc2ncccc2c1F)c1cnc2ccc(-c3cnn(C)c3)nn12", "note": "[Example 192, 5,7-Difluoro-6-{(S)-1-[6-(1-methyl-1H-pyrazol-4-yl)-imidazo[1,2-b]pyridazin-3-yl]-ethyl}-quinoline]", "IC50": "< 3"}
{"molecule": "Cc1nccn1-c1ccc2ncc(Cc3ccc4ncccc4c3)n2n1", "note": "[Example 116, 6-[6-(2-Methyl-imidazol-1-yl)-imidazo[1,2-b]pyridazin-3-ylmethyl]-quinoline]", "IC50": 980}
{"molecule": "Cn1cc(-c2ccc3ncc(Cc4cc5cccnc5cc4F)n3n2)cn1", "note": "[Example 173, 7-Fluoro-6-[6-(1-methyl-1H-pyrazol-4-yl)-imidazo[1,2-b]pyridazin-3-ylmethyl]-quinoline]", "IC50": 4}
{"molecule": "c1cnc2ccc(Cc3cnc4ccc(-c5ccc6[nH]ccc6c5)nn34)cc2c1", "note": "[Example 45, 6-[6-(1H-Indol-5-yl)-imidazo[1,2-b]pyridazin-3-ylmethyl]-quinoline]", "IC50": 100}
{"molecule": "Fc1ccc(-c2ccc3ncc(Cc4ccc5ncccc5c4)n3n2)cc1Cl", "note": "[Example 68, 6-[6-(3-Chloro-4-fluoro-phenyl)-imidazo[1,2-b]pyridazin-3-ylmethyl]-quinoline]", "IC50": 480}
{"molecule": "CN1CC(n2cc(-c3ccc4ncc(Cc5cc6cccnc6cc5F)n4n3)cn2)C1", "note": "[Example 146, 7-Fluoro-6-{6-[1-(1-methyl-azetidin-3-yl)-1H-pyrazol-4-yl]-imidazo[1,2-b]pyridazin-3-ylmethyl}-quinoline]", "IC50": 68}
{"molecule": "C[C@@H](c1ccc2nccn2c1)c1cnc2ccc(-c3cnn(C)c3)nn12", "note": "[Example 295, 3-((S)-1-Imidazo[1,2-a]pyridin-6-yl-ethyl)-6-(1-methyl-1H-pyrazol-4-yl)-imidazo[1,2-b]pyridazine]", "IC50": 19}
{"molecule": "CC(c1ccc2ncccc2c1)c1cnc2ccc(-c3cnn(C)c3)nn12", "note": "(racemic) [Example 157, (rac)-6-{1-[6-(1-Methyl-1H-pyrazol-4-yl)-imidazo[1,2-b]pyridazin-3-yl]-ethyl}-quinoline]", "IC50": 7}
{"molecule": "c1cnc2ccc(Cc3cnc4ccc(-c5cnn(CCN6CCC6)c5)nn34)cc2c1", "note": "[Example 235, 6-{6-[1-(2-Azetidin-1-yl-ethyl)-1H-pyrazol-4-yl]-imidazo[1,2-b]pyridazin-3-ylmethyl}-quinoline]", "IC50": 220}
{"molecule": "Cn1cc(-c2ccc3ncc(Cc4ccc5ncn(C)c5c4)n3n2)cn1", "note": "[Example 200, 3-(3-Methyl-3H-benzoimidazol-5-ylmethyl)-6-(1-methyl-1H-pyrazol-4-yl)-imidazo[1,2-b]pyridazine]", "IC50": 23}
{"molecule": "c1cnc2ccc(Cc3cnc4ccc(-c5cnc6ccccc6c5)nn34)cc2c1", "note": "[Example 39, 6-(6-Quinolin-3-yl-imidazo[1,2-b]pyridazin-3-ylmethyl)-quinoline]", "IC50": 72}
{"molecule": "CCn1cc(-c2ccc3ncc(Cc4cc5cccnc5cc4F)n3n2)cn1", "note": "[Example 250, 6-[6-(1-Ethyl-1H-pyrazol-4-yl)-imidazo[1,2-b]pyridazin-3-ylmethyl]-7-fluoro-quinoline]", "IC50": 15}
{"molecule": "Fc1ccc(-c2ccc3ncc(Cc4ccc5ncccc5c4)n3n2)cc1", "note": "[Example 25, 6-[6-(4-Fluoro-phenyl)-imidazo[1,2-b]pyridazin-3-ylmethyl]-quinoline]", "IC50": 48}
